Laboratory results reported in patent US20240158412A1 (Faxian Therapeutics, LLC, priority 2021, published 2024).

Target: USP7 (Homo sapiens, UniProt Q93009)
Experiment: biochemical
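Note: fluorescence intensity readout of USP7 enzymatic activity, reaction incubated 90 min at room temperature.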

Sequence of USP7 (Q93009 whole entry): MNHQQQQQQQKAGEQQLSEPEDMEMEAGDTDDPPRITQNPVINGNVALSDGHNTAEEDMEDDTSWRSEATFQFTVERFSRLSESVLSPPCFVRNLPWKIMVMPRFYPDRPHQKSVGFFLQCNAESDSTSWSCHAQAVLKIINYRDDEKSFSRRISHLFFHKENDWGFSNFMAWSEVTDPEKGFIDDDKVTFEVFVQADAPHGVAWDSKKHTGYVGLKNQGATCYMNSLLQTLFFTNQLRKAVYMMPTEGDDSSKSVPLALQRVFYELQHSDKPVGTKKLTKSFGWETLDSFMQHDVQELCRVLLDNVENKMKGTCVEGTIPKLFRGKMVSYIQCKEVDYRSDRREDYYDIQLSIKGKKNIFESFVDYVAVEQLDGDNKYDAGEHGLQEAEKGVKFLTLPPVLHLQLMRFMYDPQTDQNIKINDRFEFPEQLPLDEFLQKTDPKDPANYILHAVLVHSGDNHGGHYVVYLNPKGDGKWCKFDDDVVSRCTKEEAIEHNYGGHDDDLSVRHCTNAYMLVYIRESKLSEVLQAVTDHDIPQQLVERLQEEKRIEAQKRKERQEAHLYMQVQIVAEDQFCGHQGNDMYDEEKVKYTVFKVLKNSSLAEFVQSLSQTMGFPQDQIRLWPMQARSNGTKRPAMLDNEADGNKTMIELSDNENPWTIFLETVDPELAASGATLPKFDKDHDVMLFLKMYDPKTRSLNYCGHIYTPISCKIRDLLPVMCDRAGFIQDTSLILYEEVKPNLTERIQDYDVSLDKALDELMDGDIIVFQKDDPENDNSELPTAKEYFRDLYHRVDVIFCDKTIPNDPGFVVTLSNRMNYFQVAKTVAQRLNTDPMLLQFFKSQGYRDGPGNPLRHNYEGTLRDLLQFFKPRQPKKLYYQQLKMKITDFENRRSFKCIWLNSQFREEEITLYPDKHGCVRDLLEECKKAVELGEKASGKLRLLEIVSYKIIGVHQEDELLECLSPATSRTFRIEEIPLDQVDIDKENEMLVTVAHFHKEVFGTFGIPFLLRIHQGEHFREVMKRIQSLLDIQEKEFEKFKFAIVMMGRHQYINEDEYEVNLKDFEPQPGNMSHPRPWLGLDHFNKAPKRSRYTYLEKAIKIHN

SMILES	IC50 [nM]
Cn1ccnc(Cc2cc3nccc(-c4cc(Cl)cc5c4N([C@@H]4CNC6(CCC6)C4)CCC5)c3s2)c1=O (stereo in doubt) [Example 160, 3-((7-(6-chloro-1-(5-azaspiro[3.4]octan-7-yl)-1,2,3,4-tetrahydroquinolin-8-yl)thieno[3,2-b]pyridin-2-yl)methyl)-1-methylpyrazin-2(1H)-one]	101 to 1000
O=C1CCC(=O)N1Cc1cc2nccc(-c3cc(Cl)cc4c3N(C3CNC5(CCC5)C3)C(=O)CO4)c2s1 (single isomer, unassigned) [Example 173a]	10 to 100
O=c1cc(N2CCOCC2)cnn1Cc1cc2nccc(-c3cc(Cl)cc4c3N(C3CNC3)CCC4)c2s1 [Example 34]	10 to 100
O=C1CCC(=O)N1Cc1cc2nccc(-c3cc(Cl)cc4c3N([C@H]3CNC5(CCC5)C3)CCC4)c2s1 (single isomer, unassigned) [Example 139a]	10 to 100
Cc1cnn(Cc2cc3nccc(-c4cc(Cl)cc5c4N([C@@H]4CN[C@@H](CO)C4)CCO5)c3s2)c(=O)c1 [Example 216, 2-((7-(7-chloro-4-((3S,5R)-5-(hydroxymethyl)pyrrolidin-3-yl)-3,4-dihydro-2H-benzo[b][1,4]oxazin-5-yl)thieno[3,2-b]pyridin-2-yl)methyl)-5-methylpyridazin-3(2H)-one]	< 10
N#Cc1cc2c(c(-c3ccnc4cc(Cn5c(=O)ccn(C6CC6)c5=O)sc34)c1)N([C@H]1CCNC1)CCC2 [Example 88, (S)-8-(2-((3-cyclopropyl-2,6-dioxo-2,3-dihydropyrimidin-1(6H)-yl)methyl)thieno[3,2-b]pyridin-7-yl)-1-(pyrrolidin-3-yl)-1,2,3,4-tetrahydroquinoline-6-carbonitrile]	< 10
O=C1CCC(=O)N1Cc1cc2nccc(-c3cc(C(F)(F)F)cc4c3N([C@H]3CCNC3)CCC4)c2s1 (single isomer, unassigned) [Example 79]	< 10
O=C1CCC(=O)N1Cc1cc2nccc(-c3cc(Cl)cc4c3N([C@H]3CNC(CO)(CO)C3)CCC4)c2s1 (single isomer, unassigned) [Example 181b]	10 to 100
COC(=O)[C@]1(C)C[C@@H](N2CCCc3cc(Cl)cc(-c4ccnc5cc(CN6C(=O)CCC6=O)sc45)c32)CN1 (single isomer, unassigned) [Example 202]	10 to 100
CN1CC(=O)N(Cc2cc3nccc(-c4cc(Cl)cc5c4N([C@@H]4CNC6(CCC6)C4)CCC5)c3s2)C1=O [Example 150, (S)-3-((7-(6-chloro-1-(5-azaspiro[3.4]octan-7-yl)-1,2,3,4-tetrahydroquinolin-8-yl)thieno[3,2-b]pyridin-2-yl)methyl)-1-methylimidazolidine-2,4-dione]	< 10
O=C1CCC(=O)N1Cc1cc2nccc(-c3cc(Cl)cc4c3N([C@@H]3CCNC3)CCC4)c2s1 [Example 58, (R)-1-((7-(6-chloro-1-(pyrrolidin-3-yl)-1,2,3,4-tetrahydroquinolin-8-yl)thieno[3,2-b]pyridin-2-yl)methyl)pyrrolidine-2,5-dione]	10 to 100
CC(F)(F)Cn1ccc(=O)n(Cc2cc3nccc(-c4cc(C#N)cc5c4N([C@H]4CCNC4)CCC5)c3s2)c1=O [Example 89, (S)-8-(2-((3-(2,2-difluoropropyl)-2,6-dioxo-2,3-dihydropyrimidin-1(6H)-yl)methyl)thieno[3,2-b]pyridin-7-yl)-1-(pyrrolidin-3-yl)-1,2,3,4-tetrahydroquinoline-6-carbonitrile]	< 10
C[C@]1(CO)C[C@H](N2CCCc3cc(Cl)cc(-c4ccnc5cc(Cn6ncc(C7(C(F)(F)F)CC7)cc6=O)sc45)c32)CN1 [Example 207, 2-((7-(6-chloro-1-((3S,5R)-5-(hydroxymethyl)-5-methylpyrrolidin-3-yl)-1,2,3,4-tetrahydroquinolin-8-yl)thieno[3,2-b]pyridin-2-yl)methyl)-5-(1-(trifluoromethyl)cyclopropyl)pyridazin-3(2H)-one]	< 10
O=C1OC[C@@H](C(F)(F)F)N1Cc1cc2nccc(-c3cc(Cl)cc4c3N([C@@H]3CNC5(CCC5)C3)CCC4)c2s1 [Example 157, (S)-3-((7-(6-chloro-1-((S)-5-azaspiro[3.4]octan-7-yl)-1,2,3,4-tetrahydroquinolin-8-yl)thieno[3,2-b]pyridin-2-yl)methyl)-4-(trifluoromethyl)oxazolidin-2-one]	10 to 100
O=C1CCC(=O)N1Cc1cc2nccc(-c3cc(Cl)cc4c3N([C@H]3CCNC3)CCC4)c2s1 [Example 57, (S)-1-((7-(6-chloro-1-(pyrrolidin-3-yl)-1,2,3,4-tetrahydroquinolin-8-yl)thieno[3,2-b]pyridin-2-yl)methyl)pyrrolidine-2,5-dione]	< 10
O=C1C2CC2C(=O)N1Cc1cc2nccc(-c3cc(Cl)cc4c3N(C3CNC3)CCC4)c2s1 (centres unmarked) [Example 13, 3-((7-(1-(azetidin-3-yl)-6-chloro-1,2,3,4-tetrahydroquinolin-8-yl)thieno[3,2-b]pyridin-2-yl)methyl)-3-azabicyclo[3.1.0]hexane-2,4-dione]	10 to 100

SMILES	IC50 [nM]
CC(=O)N1CC(N2CCCc3cc(Cl)cc(-c4ccnc5cc(CN6C(=O)CCC6=O)sc45)c32)C1 [Example 8, 1-((7-(1-(1-acetylazetidin-3-yl)-6-chloro-1,2,3,4-tetrahydroquinolin-8-yl)thieno[3,2-b]pyridin-2-yl)methyl)pyrrolidine-2,5-dione]	101 to 1000
Cc1cnn(Cc2cc3nccc(-c4cc(C#N)cc5c4N(C4CNC(C)(C)C4)CCC5)c3s2)c(=O)c1 (single isomer, unassigned) [Example 120b]	101 to 1000
O=c1ccn(CC(F)F)c(=O)n1Cc1cc2nccc(-c3cc(C(F)(F)F)cc4c3N([C@@H]3CCNC3)CCC4)c2s1 (single isomer, unassigned) [Example 80]	10 to 100
O=C1CCC(=O)N1Cc1cc2nccc(-c3cc(Cl)cc4c3C3(CCC4)CNCCO3)c2s1 (single isomer, unassigned) [Example 229b]	> 1000
O=C1CCC(=O)N1Cc1cc2nccc(-c3cc(Cl)cc4c3N(C3CNC3)C(=O)CO4)c2s1 [Example 53, 1-[[7-[4-(azetidin-3-yl)-7-chloro-3-oxo-1,4-benzoxazin-5-yl]thieno[3,2-b]pyridin-2-yl]methyl]pyrrolidine-2,5-dione]	10 to 100
CC(C)(C)c1cnn(Cc2cc3nccc(-c4cc(C#N)cc5c4N([C@H]4CN[C@@H](CO)C4)C[C@H]4C[C@@H]54)c3s2)c(=O)c1 (single isomer, unassigned) [Example 193b]	10 to 100
O=C1CCC(=O)N1Cc1cc2nccc(-c3cc(Cl)cc4c3N([C@H]3C[C@@H](O)C3)CCC4)c2s1 [Example 41, Cis-1-[[7-[6-chloro-1-(3-hydroxycyclobutyl)-3,4-dihydro-2H-quinolin-8-yl]thieno[3,2-b]pyridin-2-yl]methyl]pyrrolidine-2,5-dione]	> 1000
O=C1CCC(=O)N1Cc1cc2ncnc(-c3cc(Cl)cc4c3N([C@@H]3CNC5(CCC5)C3)C[C@H]3C[C@@H]43)c2s1 [Example 167a, 1-((4-((1aS,7bR)-6-chloro-3-((S)-5-azaspiro[3.4]octan-7-yl)-1a,2,3,7b-tetrahydro-1H-cyclopropa[c]quinolin-4-yl)thieno[3,2-d]pyrimidin-6-yl)methyl)pyrrolidine-2,5-dione]	< 10
N#Cc1cc2c(c(-c3ccnc4cc(CN5C(=O)C6CC6C5=O)sc34)c1)N([C@@H]1CNC3(CCCC3)C1)CCC2 (stereo partly drawn) [Example 178b, 8-(2-((2,4-dioxo-3-azabicyclo[3.1.0]hexan-3-yl)methyl)thieno[3,2-b]pyridin-7-yl)-1-((S)-1-azaspiro[4.4]nonan-3-yl)-1,2,3,4-tetrahydroquinoline-6-carbonitrile]	< 10
O=c1ccn(CC(F)F)c(=O)n1Cc1cc2nccc(-c3cc(Cl)cc4c3N([C@H]3CCNC3)CCC4)c2s1 [Example 101, (S)-3-((7-(6-chloro-1-(pyrrolidin-3-yl)-1,2,3,4-tetrahydroquinolin-8-yl)thieno[3,2-b]pyridin-2-yl)methyl)-1-(2,2-difluoroethyl)pyrimidine-2,4(1H,3H)-dione]	< 10
O=C1CCC(=O)N1Cc1cc2nccc(-c3cc(Cl)cc4c3N(C3CN(C5CC5)C3)CCC4)c2s1 [Example 5, 1-((7-(6-chloro-1-(1-cyclopropylazetidin-3-yl)-1,2,3,4-tetrahydroquinolin-8-yl)thieno[3,2-b]pyridin-2-yl)methyl)pyrrolidine-2,5-dione]	10 to 100
CO[C@H]1C[C@@H](N2CC[C@H](N3CCCc4cc(C#N)cc(-c5ccnc6cc(Cn7c(=O)ccn(CC(F)(F)F)c7=O)sc56)c43)C2)C1 [Example 85, 8-(2-((2,6-dioxo-3-(2,2,2-trifluoroethyl)-2,3-dihydropyrimidin-1(6H)-yl)methyl)thieno[3,2-b]pyridin-7-yl)-1-((S)-1-((1s,3R)-3-methoxycyclobutyl)pyrrolidin-3-yl)-1,2,3,4-tetrahydroquinoline-6-carbonitrile]	10 to 100
O=C(c1cc2nccc(-c3cc(Cl)cc4c3N(C3CNC3)CCC4)c2s1)N1CCC1 [Example 38, Azetidin-1-yl-[7-[1-(azetidin-3-yl)-6-chloro-3,4-dihydro-2H-quinolin-8-yl]thieno[3,2-b]pyridin-2-yl]methanone]	> 1000
COCCn1ccc(=O)n(Cc2cc3nccc(-c4cc(Cl)cc5c4N(C4CNC4)CCC5)c3s2)c1=O [Example 30, 3-[[7-[1-(azetidin-3-yl)-6-chloro-3,4-dihydro-2H-quinolin-8-yl]thieno[3,2-b]pyridin-2-yl]methyl]-1-(2-methoxyethyl)pyrimidine-2,4-dione]	< 10
O=C1CCC(=O)N1Cc1cc2nccc(-c3cc(Cl)cc4c3N([C@@H]3CNC(CO)(CO)C3)CCC4)c2s1 (single isomer, unassigned) [Example 181a]	< 10
N#CC1(Cn2ccc(=O)n(Cc3cc4nccc(-c5cc(Cl)cc6c5N([C@H]5CCNC5)CCC6)c4s3)c2=O)CC1 [Example 70, (S)-1-((3-((7-(6-chloro-1-(pyrrolidin-3-yl)-1,2,3,4-tetrahydroquinolin-8-yl)thieno[3,2-b]pyridin-2-yl)methyl)-2,4-dioxo-3,4-dihydropyrimidin-1(2H)-yl)methyl)cyclopropanecarbonitrile]	< 10
